Values joined by “and” are separate entries in the source; they are usually repeats but may differ in a detail not shown here. Equal values may be shown once. Inconclusive results and toxic doses are left out. No stated cut-off is given here; in the data, active means T/C of 150% or more; inactive means T/C below 125%.
Test system: L1210 leukemia ip in BDF1 mice, survival T/C
Test: NCI In Vivo Anticancer Drug Screen. Data for tumor model L1210 Leukemia (intraperitoneal) in B6D2F1 (BDF1) mice
Details: endpoint: mean survival time, higher = longer survival
Method in brief: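 Value reflects the ratio of survival in compound-treated mice to survival in vehicle-treated controls, with both groups carrying the same transplanted tumor.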

[1] = dose: 12.5 mg/kg/injection, schedule: Q04DX003 (ip), vehicle: saline with Tween-80
[2] = dose: 25.0 mg/kg/injection, schedule: Q04DX003 (ip), vehicle: saline with Tween-80
[3] = dose: 50.0 mg/kg/injection, schedule: Q04DX003 (ip), vehicle: saline with Tween-80
[4] = dose: 100.0 mg/kg/injection, schedule: Q01DX001 (ip), vehicle: saline
[5] = dose: 100.0 mg/kg/injection, schedule: Q01DX009 (ip), vehicle: Klucel (hydroxypropylcellulose) (HPC)
[6] = dose: 100.0 mg/kg/injection, schedule: Q01DX009 (ip), vehicle: saline with Tween-80
[7] = dose: 100.0 mg/kg/injection, schedule: Q04DX003 (ip), vehicle: saline with Tween-80
[8] = dose: 200.0 mg/kg/injection, schedule: Q01DX001 (ip), vehicle: saline
[9] = dose: 200.0 mg/kg/injection, schedule: Q01DX009 (ip), vehicle: Klucel (hydroxypropylcellulose) (HPC)
[10] = dose: 200.0 mg/kg/injection, schedule: Q01DX009 (ip), vehicle: saline with Tween-80
[11] = dose: 200.0 mg/kg/injection, schedule: Q04DX003 (ip), vehicle: saline with Tween-80
[12] = dose: 400.0 mg/kg/injection, schedule: Q01DX001 (ip), vehicle: saline
[13] = dose: 400.0 mg/kg/injection, schedule: Q01DX009 (ip), vehicle: Klucel (hydroxypropylcellulose) (HPC)
[14] = dose: 400.0 mg/kg/injection, schedule: Q01DX009 (ip), vehicle: saline with Tween-80
[15] = dose: 400.0 mg/kg/injection, schedule: Q04DX003 (ip), vehicle: saline with Tween-80
[16] = dose: 25.0 mg/kg/injection, schedule: Q01DX009 (ip), vehicle: saline with Tween-80
[17] = dose: 50.0 mg/kg/injection, schedule: Q01DX009 (ip), vehicle: saline with Tween-80

Measured: T/C

COc1ccc(CCNC(=O)Cc2ccc(OC)c(OC)c2)cc1OC
inactive: [1] 94 % of control | [2] 110 % of control | [3] 100 % of control | [4] 98 % of control | [5] 94 % of control | dose: 100.0 mg/kg/injection, schedule: Q01DX009 (ip), vehicle: saline sonified 100 % of control | [6] 86 % of control | dose: 100.0 mg/kg/injection, schedule: Q04DX003 (ip), vehicle: Klucel (hydroxypropylcellulose) (HPC) 105 % of control | [7] 107 % of control | [8] 92 % of control | [9] 96 % of control | dose: 200.0 mg/kg/injection, schedule: Q01DX009 (ip), vehicle: saline sonified 100 % of control | [10] 95 % of control | dose: 200.0 mg/kg/injection, schedule: Q04DX003 (ip), vehicle: Klucel (hydroxypropylcellulose) (HPC) 112 % of control | [11] 94 % of control | [12] 93 % of control | [13] 98 % of control | dose: 400.0 mg/kg/injection, schedule: Q01DX009 (ip), vehicle: saline sonified 90 % of control | [14] 91 % of control | dose: 400.0 mg/kg/injection, schedule: Q04DX003 (ip), vehicle: Klucel (hydroxypropylcellulose) (HPC) 104 % of control | [15] 92 % of control

CC(=O)Nc1cccc2c1C(=O)c1c(c(O)c3ccccc3c1O)C2=O
inactive: dose: 0.12 mg/kg/injection, schedule: Q01DX009 (ip), vehicle: Klucel (hydroxypropylcellulose) (HPC) 101 % of control | dose: 0.25 mg/kg/injection, schedule: Q01DX009 (ip), vehicle: Klucel (hydroxypropylcellulose) (HPC) 100 % of control | dose: 0.25 mg/kg/injection, schedule: Q04DX003 (ip), vehicle: Klucel (hydroxypropylcellulose) (HPC) 97 % of control | dose: 0.5 mg/kg/injection, schedule: Q01DX009 (ip), vehicle: Klucel (hydroxypropylcellulose) (HPC) 102 % of control | dose: 0.5 mg/kg/injection, schedule: Q04DX003 (ip), vehicle: Klucel (hydroxypropylcellulose) (HPC) 97 % of control | dose: 1.0 mg/kg/injection, schedule: Q01DX009 (ip), vehicle: Klucel (hydroxypropylcellulose) (HPC) 97 % of control | dose: 1.0 mg/kg/injection, schedule: Q04DX003 (ip), vehicle: Klucel (hydroxypropylcellulose) (HPC) 97 % of control | dose: 2.0 mg/kg/injection, schedule: Q01DX009 (ip), vehicle: Klucel (hydroxypropylcellulose) (HPC) 98 % of control | dose: 2.0 mg/kg/injection, schedule: Q04DX003 (ip), vehicle: Klucel (hydroxypropylcellulose) (HPC) 101 % of control | dose: 2.0 mg/kg/injection, schedule: Q04DX003 (ip), vehicle: water 95 % of control | dose: 3.12 mg/kg/injection, schedule: Q01DX009 (ip), vehicle: saline with Tween-80 102 % of control | dose: 4.0 mg/kg/injection, schedule: Q01DX009 (ip), vehicle: Klucel (hydroxypropylcellulose) (HPC) 105 % of control | dose: 4.0 mg/kg/injection, schedule: Q04DX003 (ip), vehicle: water 100 % of control | dose: 6.25 mg/kg/injection, schedule: Q01DX009 (ip), vehicle: saline with Tween-80 100 % of control | dose: 8.0 mg/kg/injection, schedule: Q04DX003 (ip), vehicle: water 102 % of control | dose: 12.5 mg/kg/injection, schedule: Q01DX009 (ip), vehicle: saline with Tween-80 97 % of control | [1] 100 % of control | dose: 16.0 mg/kg/injection, schedule: Q04DX003 (ip), vehicle: water 96 % of control and 103 % of control | [16] 102 % of control | [2] 96 % of control | dose: 32.0 mg/kg/injection, schedule: Q04DX003 (ip), vehicle: water 96 % of control | [17] 96 % of control | [3] 103 % of control | dose: 64.0 mg/kg/injection, schedule: Q04DX003 (ip), vehicle: water 97 % of control | [7] 96 % of control

CCOC(CCl)(OCC)OCC
inactive: dose: 100.0 mg/kg/injection, schedule: Q04DX002 (ip), vehicle: saline with Tween-80 97 % of control | dose: 200.0 mg/kg/injection, schedule: Q04DX002 (ip), vehicle: saline with Tween-80 90 % of control

Nc1ccc(CCCCc2ccccc2)cc1
inactive: [16] 96 % of control | [17] 89 % of control

CC1(C)CN(C(C)(C)C)CC(C)(C)C(=O)C1=O
inactive: dose: 50.0 mg/kg/injection, schedule: Q01DX001 (ip), vehicle: saline sonified 91 % of control | dose: 100.0 mg/kg/injection, schedule: Q01DX001 (ip), vehicle: saline sonified 98 % of control | dose: 200.0 mg/kg/injection, schedule: Q01DX001 (ip), vehicle: saline sonified 87 % of control

CC(C)(C)C1CCC(Br)C(Cl)C1 (stereo not drawn)
inactive: dose: 100.0 mg/kg/injection, schedule: Q01DX009 (ip), vehicle: saline 98 % of control | dose: 200.0 mg/kg/injection, schedule: Q01DX009 (ip), vehicle: saline 105 % of control | dose: 400.0 mg/kg/injection, schedule: Q01DX009 (ip), vehicle: saline 100 % of control

O=C(CC(=O)c1cccnc1)NC(=O)c1ccccc1
inactive: dose: 100.0 mg/kg/injection, schedule: Q01DX001 (ip), vehicle: other 96 % of control | dose: 200.0 mg/kg/injection, schedule: Q01DX001 (ip), vehicle: other 86 % of control | dose: 400.0 mg/kg/injection, schedule: Q01DX001 (ip), vehicle: other 89 % of control

O=S(=O)(C1CC1c1ccccc1)N1CCOCC1 (stereo not drawn)
inactive: [4] 101 % of control | [8] 106 % of control | [12] 95 % of control

COC1OC(CCl)C(OS(=O)(=O)c2ccc(C)cc2)C(OS(=O)(=O)c2ccc(C)cc2)C1OS(=O)(=O)c1ccc(C)cc1 (stereo not drawn)
inactive: dose: 100.0 mg/kg/injection, schedule: Q04DX002 (ip), vehicle: Klucel (hydroxypropylcellulose) (HPC) 90 % of control | dose: 200.0 mg/kg/injection, schedule: Q04DX002 (ip), vehicle: Klucel (hydroxypropylcellulose) (HPC) 93 % of control | dose: 400.0 mg/kg/injection, schedule: Q04DX002 (ip), vehicle: Klucel (hydroxypropylcellulose) (HPC) 97 % of control

c1ccc(C2OC2(c2ccccc2)c2ccccc2)cc1 (stereo not drawn)
inactive: [5] 95 % of control | [7] 101 % of control | [9] 102 % of control | [11] 92 % of control | [13] 102 % of control | [15] 95 % of control

Cc1ccc2ccc3c4ccccc4ccc3[n+]2c1
inactive: dose: 10.0 mg/kg/injection, schedule: Q01DX001 (ip), vehicle: saline 102 % of control | dose: 20.0 mg/kg/injection, schedule: Q01DX001 (ip), vehicle: saline 98 % of control

c1ccc2c(c1)C1c3cccc[n+]3C2C2C1CC1C3c4ccccc4C(C12)[n+]1ccccc13 (stereo not drawn)
inactive: dose: 1.56 mg/kg/injection, schedule: Q04DX003 (ip), vehicle: saline 100 % of control | dose: 3.12 mg/kg/injection, schedule: Q01DX009 (ip), vehicle: saline 111 % of control | dose: 3.12 mg/kg/injection, schedule: Q04DX003 (ip), vehicle: saline 96 % of control | dose: 6.25 mg/kg/injection, schedule: Q01DX009 (ip), vehicle: saline 100 % of control and 88 % of control | dose: 6.25 mg/kg/injection, schedule: Q04DX003 (ip), vehicle: saline 95 % of control | dose: 12.5 mg/kg/injection, schedule: Q01DX009 (ip), vehicle: saline 100 % of control and 102 % of control

O=[N+]([O-])c1cc2c(c3cccnc13)COCO2
inactive: [4] 102 % of control | [8] 100 % of control | [12] 94 % of control

O=C(NC(=O)C1CC1)C1CC1
inactive: [6] 94 % of control | [7] 106 % of control | [10] 100 % of control | [11] 87 % of control | [14] 100 % of control | [15] 93 % of control
